Assays:
[1] = tested on: S. aureus UC9271; test: ED50 determination, mice infected intraperitoneally with S. aureus UC9271; assay type: in vivo, Staphylococcus aureus (infected mice, Charles Fisher #1); settings: dosed 1 and 5 hr post infection, 10080 min
Protocol: (§1) Effective Dose50 (ED50) determinations were performed using standard methods. All mice (Charles Fisher #1, 20 g) were given sufficient S. aureus intraperitoneally (IP) to kill 90 to 100% of untreated mice. At least five dosage levels of antibiotics were employed per each ED50 determination. The antibiotic was administered subcutaneous (SQ) or orally at 1 and 5 hr post infection. The mice were monitored for one week with deaths being noted daily. The ED50 values were calculated by probit analysis.
(§2) ^1 The dose of drug in mg/kg of body weight required to protect 50% o
(§3) the infected animals. Drug was dosed one and five hours post infection
(§4) ^2 Paldimycin was dosed SQ.

[2] = tested on: Staphylococcus aureus; test: Topical treatment of patient with infected burn (Example 2); assay type: in vivo, Staphylococcus aureus (human patient); settings: 60 kg female, cream containing 3% rubradirin
Protocol: (§5) A 60 kg patient has an infection on their arm following a severe burn. They have a 101° F. fever. Standard laboratory tests isolate an organism which is identified as Staphylococcus aureus. […] The patient is treated with a cream containing 3% rubradirin.

[3] = tested on: S. aureus UC6685; test: ED50 determination, mice infected intraperitoneally with S. aureus UC6685; assay type: in vivo, Staphylococcus aureus (infected mice, Charles Fisher #1); settings: dosed 1 and 5 hr post infection, 10080 min
Protocol: as §1, §2, §3, §4

[4] = tested on: two clinical strains of S. aureus; settings: cited from earlier work
[5] = tested on: Staphylococcus aureus; test: Susceptibility test of patient isolate; assay type: cell-based; settings: isolate from patient, Examples 1 to 3
Protocol: It is known to those skilled in the art how to determine which Staphylococcus (aureus or epidermidis) infections are rubradirin-sensitiveand methicillin-resistant by use of standarad susceptibility tests. See, "Dilution Susceptibility Test: agar and macro-broth dilution procedures; Manual of Clinical Microbiology, Third Edition, American Society of Microbiology, 1980, Washington, D.C., p 453-458".
(§6) A 70 kg person has a fever of 103° F. and has symptoms of bacterial pneumonia infection. Standard laboratory tests isolate an organism which is identified as Staphylococcus aureus. […] The patient is given 1000 mg of rubradirin three times daily by mouth. The temperature over a short period goes to 98.6° F. and the clinical symptoms of pneumonia disappear.
as §5
A 85 kg person has baceterial endocarditis with a fever of 104° F. Standard laboratory tests isolate an organism which is identified as Staphylococcus aureus. […] The patient is treated with an IV infusion of rubradirin (4.5 mg/ml) at a rate of 60 ml/hr for a dose of 76 mg/kg/day.

[6] = tested on: S. aureus UC9213; test: ED50 determination, mice infected intraperitoneally with S. aureus UC9213; assay type: in vivo, Staphylococcus aureus (infected mice, Charles Fisher #1); settings: dosed 1 and 5 hr post infection, 10080 min
Protocol: as §1, §2, §3, §4

[7] = tested on: Staphylococcus aureus; test: Treatment of patient with bacterial pneumonia (Example 1); assay type: in vivo, Staphylococcus aureus (human patient); settings: 70 kg male, 1000 mg three times daily by mouth
Protocol: as §6

[8] = tested on: Multidrug-resistant staphylococci; settings: Orthopedic Clinics of North America 15, 417 (1984); cited from earlier work

Question: Which results are given for `COc1ccc2c(O)c(NC(=O)c3cc(O[C@@H]4C[C@](C)([N+](=O)[O-])[C@@H](OC)[C@@H](C)O4)c(O)c(C(=O)O[C@H]4[C@H](O)C(=O)[C@]5(C)CNC6=C(O5)C(=O)c5c(cc(C)c(O)c5C(=O)/C(C)=C\[C@@H]4C)C6=O)n3)c(=O)oc2c1` [Rubradirin, rubradirin]?
Answer: ED50 ([1]; SQ): 23.1 mg/kg; ED50 ([1]; oral): 141 mg/kg; inflammation [2]: less inflammation; wound infection and healing [2]: the wound is not infected and appears to be healing much better; temperature ([2]; after 3 days, 101° F. fever before): goes to normal; ED50 ([3]; SQ): 4.7 mg/kg; ED50 ([3]; oral): 11.1 mg/kg; in vitro activity ([4]; two clinical strains resistant to several antibiotics): had in vitro activity; Susceptibility test results of the isolate [5]: susceptible; ED50 ([6]; SQ): 4.7 mg/kg; ED50 ([6]; oral): 1.6 mg/kg; clinical symptoms of pneumonia [7]: disappear; temperature ([7]; fever of 103° F. before): 98.6 ° F.

Question: For `COc1cccc(OC)c1C(=O)N[C@@H]1C(=O)N2[C@@H]1SC(C)(C)[C@@H]2C(=O)O` [methicillin], which “methicillin sensitivity of the strains” value ([4]; strains originally tested by Bhuyan et al, later study) is on record?
Answer: sensitive

Question: And the “Susceptibility test results of the isolate” value [5]?
Answer: resistant

Question: For `CN[C@H](CC(C)C)C(=O)N[C@H]1C(=O)N[C@@H](CC(N)=O)C(=O)N[C@H]2C(=O)N[C@H]3C(=O)N[C@H](C(=O)N[C@H](C(=O)O)c4cc(O)cc(O)c4-c4cc3ccc4O)[C@H](O)c3ccc(c(Cl)c3)Oc3cc2cc(c3O[C@@H]2O[C@H](CO)[C@@H](O)[C@H](O)[C@H]2O[C@H]2C[C@](C)(N)[C@H](O)[C@H](C)O2)Oc2ccc(cc2Cl)[C@H]1O` [vancomycin], which susceptibility [8] is on record?
Answer: retained their susceptibility

Question: With Paldimycin as the molecule, how does the ED50 ([1]; SQ) read?
Answer: 20.5 mg/kg

Question: What about the ED50 ([3]; SQ) of the same molecule?
Answer: 8.1 mg/kg

Question: What about the ED50 ([6]; SQ) of the same molecule?
Answer: 12.7 mg/kg

Reference: patent US4749568A, “Rubradirin treatment of methicillin-resistant staph” (The Upjohn Company, priority 1987, dated 1988)
